Reference: patent US20110097338A1, “Use of Substances for Sensitization of Tumor Cells to Radiation and/or Chemotherapy” (TECHNISCHE UNIVERSITAET DRESDEN, priority 2008, published 2011)
d = 2'-deoxy (DNA); r = 2'-OH (RNA)

How the values were obtained:
Format in all cases: cell-based, human
DLD-1 = test: Clonogenic survival after radiation (colony forming assay), siRNA transfection; details: siRNA 20 nmol/l, irradiated 48 h later with 0-6 Gy
Procedure: (§1) Human colorectal tumor cell lines of the type HCT-116 (ATCC No. CCL-247) and of the type DLD-1 (ATCC No. CCL-221) were transfected with PINCH-1-siRNA of the SEQ ID No. 5. For this purpose, 3×10^5 tumor cells on 6-well plates (BD, Heidelberg) in Dulbecco's Modified Eagle (DMEM; Gibco, Karlsruhe) with Glutamax-I (L-alanyl-L-glutamine), 10% serum (FCS; Biochrom, Berlin) and 1% of non-essential amino acids (Gibco, Karlsruhe) were seeded and cultured at 37° C. and 7% CO2. After 24 h the cells were washed once with Opti-MEM I (Invitrogen, Karlsruhe) and transfected with oligo fectamine (0.2%) and 20 nmol/l PINCH-1-siRNA for 8 h without serum in Opti-MEM I. Afterwards 10% serum was added and the cells incubated for another 16 h at 37° C. and 7% CO2. After a total of 24 h after transfection the cells were washed with phosphate-buffered saline solution (PBS; PAA, Cölbe) and removed with trypsin/EDTA solution. […] Of this portion, protein lysates were produced for examining knock-downs in the Western Blot, the proteins were separated by means of SDS PAGE, transferred onto a nitrocellulose membrane and detected with a mouse-anti-PINCH-1-antibody (clone 49; BD Heidelberg) as well as a peroxidase-coupled goat-anti-mouse-secondary antibody and the ECL system (GE Healthcare, Munich).

HCT-116 = test: as above; details: siRNA 20 nmol/l, irradiated 48 h later with 0-6 Gy
Procedure: as §1

PINCH-1 protein = test: Western Blot of PINCH-1 knock-down after siRNA transfection; details: HCT-116 and DLD-1 cells; 20 nmol/l siRNA with oligo fectamine; lysates 48 h after transfection
Procedure: as §1

Which results are given for “GCUAUAUCUCAAAGCAGUUtt (GCUAUAUCUCAAAGCAGUUTT; siRNA; sugars from the 5' end r19 d2, backbone not given here) [PINCH-1-siRNA of the SEQ ID No. 5]”?
survival rate after radiation vs. control-siRNA (FIG. 4) (DLD-1): lowered significantly; survival rate after radiation vs. control-siRNA (FIG. 4) (HCT-116): lowered significantly; formation of PINCH-1 protein / PINCH-1 expression (Western Blot, FIG. 3) (PINCH-1 protein): prevented
